US10757944B2, “Ozone treatment for elimination of pathogens” (priority 2016, dated 2020)

Test system: CFUs on cannabis flower
Test: Exposure of cannabis flower to 200 ppm ozone, CFU reduction
Type: cell-based
Conditions: between about 20 minutes and 90 minutes

With `O=[O+][O-]` [ozone] the “reduction of CFUs” value was 100,000 to 150,000 CFUs per hour.
